Where two headings read alike, the source gives them in different places.
Tests used:
[1] = human, in vivo
[2] = test system: BetaCoV/Belgium/GHB-03021/2020; conditions: cited from earlier work
WA1 = test system: WA1; set-up: method as in Pitts et al[4]; conditions: A549-ACE2-TMPRSS, Nucleoprotein ELISA, ref Pitts et al[4]; cited from earlier work
Delta = conditions: A549-ACE2-TMPRSS, Nucleoprotein ELISA, ref Pitts et al[4]; cited from earlier work
Omicron = conditions: A549-ACE2-TMPRSS, Nucleoprotein ELISA, ref Pitts et al[4]; cited from earlier work
Omicron/BA.2 = test system: Omicron/BA.2; set-up: method as in Takashita et al[5]; conditions: Vero E6, Focus reduction, ref Takashita et al[5]; cited from earlier work
clinical = conditions: human, in vivo
plasma protein = conditions: cited from earlier work
[3] = plasma samples; cited from earlier work
[4] = test system: nCoV-2019BetaCoV/Wuhan/WIV04/2019; conditions: cited from earlier work
[5] = test system: BetaCoV/France/IDF0571/2020; conditions: cited from earlier work
[6] = human, in vivo; cited from earlier work

Which “Age effect on V, bootstrap median” value [1] does the source give for `N#C[C@@]1(c2ccc3c(N)ncnn23)O[C@H](CO)[C@@H](O)[C@H]1O` [GS-441524] here?
The value was “–1.18”.

And the “Age effect on V, final model mean” value [1]?
Its value is “–1.15”.

What about the “V/fm, bootstrap median” value [1] of the same compound?
The value was 429 L.

What about the “V/fm, final model mean” value [1] of the same compound?
The value was 429 L.

And the “eGFR effect on CL, bootstrap median” value [1]?
Its value is 1.23.

What about the “eGFR effect on CL, final model mean” value [1] of the same compound?
Its value is 1.12.

And the EC50 [2]?
Its EC50 is 510 nM.

And the EC50 (WA1)?
Its EC50 is 5600 nM.

And the EC50 (Delta)?
The EC50 was 3260 nM.

What about the EC50 (Omicron) of the same compound?
Its EC50 is 3150 nM.

And the EC50 (Omicron/BA.2)?
The EC50 was 2850 nM.

What about the clearance (clinical; CL/fm, bootstrap median) of the same compound?
Its clearance is 267 mL/min.

What about the clearance (clinical; CL/fm, final model mean) of the same compound?
The clearance was 265 mL/min.

What about the protein binding (plasma protein) of the same compound?
The protein binding was 2%.

And the “stable at room temperature” value [3]?
The value was 48 h.

Which “V, bootstrap median” value [1] does the source give for `CCC(CC)COC(=O)[C@H](C)N[P@](=O)(OC[C@H]1O[C@@](C#N)(c2ccc3c(N)ncnn23)[C@H](O)[C@@H]1O)Oc1ccccc1` [Remdesivir, reference compound] here?
Its value is 111 L.

What about the EC50 [4] of the same compound?
Its EC50 is 770 nM.

And the EC90 [4]?
The EC90 was 1760 nM.

What about the EC50 [5] of the same compound?
Its EC50 is 990 nM.

What about the EC50 [2] of the same compound?
The EC50 was 48 nM.

What about the EC50 (Delta) of the same compound?
The EC50 was 70 nM.

What about the EC50 (Omicron) of the same compound?
The EC50 was 42 nM.

And the clearance (clinical; CL, bootstrap median)?
The clearance was 1670 mL/min.

What about the clearance (clinical; iv, CL, final model mean) of the same compound?
The clearance was 1600 mL/min.

What about the clearance [6] of the same compound?
The clearance was 207 L/h.

What about the protein binding (plasma protein; human) of the same compound?
Its protein binding is 97%.

Source: paper PMC12064607 (Clinical Pharmacokinetics, 2025)
